Measured values from PMC7145288, “New Peptide-Based Pharmacophore Activates 20S Proteasome” (Molecules, 2020).
Entries after “also recorded” stand apart in the source; their conditions may differ.

Assays:
[1] = target: T1, core proteasome, trypsin-like (T-L) activity (Homo sapiens, UniProt P25787+P60900); test: T-L peptidase activity of latent 20S proteasome (Boc-LRR-AMC); type: biochemical; conditions: 100 μM Boc-LRR-AMC, n = 3–4
T1 construct: Human housekeeping core (20S) proteasome purified from erythrocytes; purchased Boston Biochem, Inc. or Enzo Life Sciences, Inc; host or cells: human erythrocytes (natural source)
Method: (§1) Human housekeeping core (20S) proteasome purified from erythrocytes was purchased from Boston Biochem, Inc. (Cambridge, MA) or from Enzo Life Sciences, Inc. (Farmingdale, NY). Multiple batches of the proteasomes were used and performed reproducibly. The stock proteasome was diluted to 0.2 mg/mL working solution in “dilution buffer” (50 mM Tris/HCl, pH 8, 20% glycerol). The following model peptide substrates, all releasing fluorescent 7-amino-4-methylcoumarin (AMC) reporter group after cleavage, were used: succinyl-LeuLeuValTyr-AMC (for the ChT-L peptidase; SucLLVY-AMC; Bachem Bioscience Inc., Philadelphia, PA), butoxycarbonyl-LeuArgArg-AMC (T-L; Bachem Bioscience Inc., Philadelphia, PA) and carbobenzoxy- LeuLeuGlu-AMC (PGPH; Enzo Life Sciences Inc., Farmingdale, NY). The substrates were used at concentration of 50 μM (ChT-L) or 100 μM (T-L, PGPH). […] After mixing, the plate was transferred to a Fluoroskan Ascent plate reader (Thermo Fisher Scientific Inc., Waltham, MA) for 1 h (37 °C), with fluorescence readouts once per minute. […] The reaction rates were calculated from a linear segment of kinetic curves constructed from measurements in 1-min intervals. Reaction rates were calculated using a linear fit performed with the Slope Analyser and Enzyme Kinetics applications launched within Origin Pro 2019 (OriginLab Corporation, Northampton, MA). […]

[2] = target: T2, core proteasome, post glutamyl peptide hydrolyzing (PGPH) activity (Homo sapiens, UniProt P25787+P60900); test: PGPH peptidase activity of latent 20S proteasome (Z-LLE-AMC); type: biochemical; conditions: 100 μM Z-LLE-AMC, n = 3–4
T2 construct: Human housekeeping core (20S) proteasome purified from erythrocytes; purchased Boston Biochem, Inc. or Enzo Life Sciences, Inc; host or cells: human erythrocytes (natural source)
Method: as §1

[3] = system: animal models of Alzheimer's disease; conditions: ref 15 (Chocron et al.); cited from earlier work
Description: In the light of significant proteasome-enhancing effects of TAT peptides observed both in cellulo (Figure 5 and [15]) and in vivo [15], there is a crucial question of how they influence proteolytic activity in the most widespread form of the proteasome, the 26S holoenzyme. The most-explored TAT compounds are proposed to dock in the α1/α2 pocket, which, alongside the α5/α6 pocket, is permanently occupied in all conformational forms of the 26S assembly. Therefore, activation of the core already decorated with two 19S modules seems excluded. Still, in our in vitro experiments, a signif ...

Compound | Effect on T-L activity (in words) [1] | Effect on PGPH activity (in words) [2] | Proteins with increased turnover on treatment [3]
N=C(N)NCCC[C@H](NC(=O)CN)C(=O)N[C@@H](CCCCN)C(=O)N[C@@H](CCCCN)C(=O)N[C@@H](CCCNC(=N)N)C(=O)N[C@@H](CCCNC(=N)N)C(=O)N[C@@H](CCC(N)=O)C(=O)N1Cc2ccccc2C[C@H]1C(=O)N1[C@@H](C(=O)N[C@@H](CCCNC(=N)N)C(=O)N2CCC[C@H]2C(=O)N[C@@H](CO)C(=O)O)C[C@H]2CCCC[C@H]21 [(5)] | weak inhibitory effects; also recorded: did not seem to significantly affect | weak inhibitory effects; also recorded: did not seem to significantly affect | APP and β secretase
NCCCC[C@H](NC(=O)[C@H](CCCCN)NC(=O)[C@H](CCCCN)NC(=O)c1cc(NC(=O)[C@H](CCCCN)NC(=O)[C@H](CCCCN)NC(=O)[C@@H](N)CCCCN)cc(NC(=O)[C@H](CCCCN)NC(=O)[C@H](CCCCN)NC(=O)[C@@H](N)CCCCN)c1)C(=O)O [(8)] | weak inhibitory effects; also recorded: did not seem to significantly affect | weak inhibitory effects; also recorded: did not seem to significantly affect | APP and β secretase
